Legend:
[1] = molecular target: T1, C-C chemokine receptor type 2 (Homo sapiens, UniProt P41597); experiment: Inhibition of [125I]MCP1 binding to CCR2 expressed in CHO cells at 1 uM; format: cell-based
Target sequence in this assay (P41597 whole entry, looked up): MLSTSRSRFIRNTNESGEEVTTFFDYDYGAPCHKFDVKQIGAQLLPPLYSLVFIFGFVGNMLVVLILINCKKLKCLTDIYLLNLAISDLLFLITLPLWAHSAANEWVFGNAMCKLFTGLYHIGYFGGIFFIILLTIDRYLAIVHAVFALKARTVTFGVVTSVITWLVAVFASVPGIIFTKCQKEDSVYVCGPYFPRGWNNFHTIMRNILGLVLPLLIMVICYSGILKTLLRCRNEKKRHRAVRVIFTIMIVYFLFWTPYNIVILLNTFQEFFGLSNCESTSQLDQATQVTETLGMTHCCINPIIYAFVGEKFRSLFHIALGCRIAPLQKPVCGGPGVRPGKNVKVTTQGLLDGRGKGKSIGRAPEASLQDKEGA

[2] = molecular target: T1, C-C chemokine receptor type 2; experiment: Inhibition of [125I]MCP1 binding to CCR2 expressed in CHO cells; format: cell-based
Target sequence in this assay (P41597 whole entry): as the sequence (P41597 whole entry, looked up) above

Monocyte [3] = experiment: Inhibition of MCP1-stimulated chemotaxis of human monocyte at 1 uM; format: functional
[4] = molecular target: T2, C-C chemokine receptor type 5 (Homo sapiens, UniProt P51681); experiment: Inhibition of CCR5
Target sequence in this assay (P51681 whole entry): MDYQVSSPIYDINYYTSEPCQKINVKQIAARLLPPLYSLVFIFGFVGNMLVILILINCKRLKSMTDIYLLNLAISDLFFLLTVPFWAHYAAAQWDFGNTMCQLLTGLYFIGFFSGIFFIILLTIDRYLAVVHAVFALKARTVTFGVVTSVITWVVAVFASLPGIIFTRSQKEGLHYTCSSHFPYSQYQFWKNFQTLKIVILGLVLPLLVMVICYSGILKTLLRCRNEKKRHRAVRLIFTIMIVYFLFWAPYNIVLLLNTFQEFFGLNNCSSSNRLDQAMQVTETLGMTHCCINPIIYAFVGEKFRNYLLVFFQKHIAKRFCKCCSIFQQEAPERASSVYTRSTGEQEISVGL

Substance-P receptor = Substance-P receptor (Homo sapiens, UniProt P25103); experiment: Inhibition of NK1
Sequence of Substance-P receptor (P25103 whole entry): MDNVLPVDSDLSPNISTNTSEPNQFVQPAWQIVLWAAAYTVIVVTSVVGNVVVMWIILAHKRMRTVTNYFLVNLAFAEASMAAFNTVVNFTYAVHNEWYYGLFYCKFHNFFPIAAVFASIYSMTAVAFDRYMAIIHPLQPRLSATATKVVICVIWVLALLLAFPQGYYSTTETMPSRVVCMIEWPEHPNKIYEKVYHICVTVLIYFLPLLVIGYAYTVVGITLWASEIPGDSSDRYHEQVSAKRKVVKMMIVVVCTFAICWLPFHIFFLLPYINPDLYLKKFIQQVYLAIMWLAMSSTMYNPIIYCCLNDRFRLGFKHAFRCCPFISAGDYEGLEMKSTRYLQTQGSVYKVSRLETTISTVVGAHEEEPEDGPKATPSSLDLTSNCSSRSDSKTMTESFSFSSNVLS

[5] = Oral bioavailability in rat at 3 mg/kg; format: ADME, organism-based; details: in vivo
Monocyte [6] = experiment: Inhibition of MCP1-stimulated chemotaxis of human monocyte; format: functional, cell-based
[7] = Plasma clearance in rat at 3 mg/kg; format: ADME, organism-based; set-up: dose 3 mg/kg
[8] = Half life in rat at 3 mg/kg; format: ADME, organism-based; set-up: dose 3 mg/kg; details: in vivo
[9] = molecular target: T2, C-C chemokine receptor type 5; experiment: Inhibition of CCR5 at 0.01 uM
Target sequence in this assay (P51681 whole entry, looked up): as the sequence (P51681 whole entry) above

Row | SMILES | inhibition [1] [%] | IC50 [2] [nM] | also measured
1 | C[C@@H]1CN(CC[C@H](CNCc2cc(C(F)(F)F)cc(C(F)(F)F)c2)c2ccc(F)cc2)CC[C@@H]1c1ccccc1 |  | 700 | 
2 | CC1CN(CC[C@H](C(=O)NCc2cc(C(F)(F)F)cc(C(F)(F)F)c2)c2ccc(F)cc2)CCN1c1ccccc1 (stereo not given in full) |  | 780 | 
3 | O=C(NCc1cc(C(F)(F)F)cc(C(F)(F)F)c1)[C@@H](CCN1CCCCC1)c1ccc(F)cc1 |  | 1100 | 
4 | O=C(NCc1cc(C(F)(F)F)cc(C(F)(F)F)c1)[C@@H](CCN1CCC2(C=Cc3ccccc32)CC1)c1ccc(F)cc1 |  | 80 | bioavailability [5]: 38%; IC50 (Monocyte [6]): 176 nM; clearance [7]: 6 mL/min/kg; IC50 [4]: 30 nM; IC50 (Substance-P receptor): 50 nM; half-life [8]: 8 h
5 | CN(C)CCN[C@H](C(=O)NCc1cc(C(F)(F)F)cc(C(F)(F)F)c1)c1ccc(F)cc1 |  | 720 | 
6 | C[C@](CCN1CCC(c2ccccc2)CC1)(CNCc1cc(C(F)(F)F)cc(C(F)(F)F)c1)c1ccc(F)cc1 |  | 1070 | 
7 | C[C@H]1CN(CC[C@H](C(=O)NCc2cc(C(F)(F)F)cc(C(F)(F)F)c2)c2ccc(F)cc2)CC[C@@]12C=Cc1ccccc12 |  | 59 | IC50 (Monocyte [6]): 41 nM; inhibition [9]: 26%; IC50 (Substance-P receptor): 28 nM
8 | CC1CN(CC[C@H](C(=O)NCc2cc(C(F)(F)F)cc(C(F)(F)F)c2)c2ccc(F)cc2)CCC12C=Cc1ccccc12 (stereo not given in full) |  | 45 | 
9 | O=C(NCc1cc(C(F)(F)F)cc(C(F)(F)F)c1)[C@@H](CCN1CCC2(CCc3ccccc32)CC1)c1ccc(F)cc1 |  | 320 | 
10 | O=C(NCc1cc(C(F)(F)F)cc(C(F)(F)F)c1)[C@@H](CCN1CCC(C2CCCCC2)CC1)c1ccc(F)cc1 | 20 |  | 
11 | C=CCN1CCC(N(CC[C@H](C(=O)NCc2cc(C(F)(F)F)cc(C(F)(F)F)c2)c2ccc(F)cc2)C(=O)OCc2ccccc2)CC1 | 14 |  | 
12 | O=C(NCc1cc(C(F)(F)F)cc(C(F)(F)F)c1)[C@@H](CCCN1CCCCC1)c1ccc(F)cc1 |  | 1000 | 
13 | C[C@H]1CN(CC[C@H](CNCc2cc(C(F)(F)F)cc(C(F)(F)F)c2)c2ccc(F)cc2)CC[C@@H]1c1ccccc1 |  | 140 | 
14 | O=C(NCc1cc(C(F)(F)F)cc(C(F)(F)F)c1)[C@@H](CCN1CC[C@@H]2c3ccccc3CC[C@H]2C1)c1ccc(F)cc1 | 6 |  | 
15 | O=C(NCc1cc(C(F)(F)F)cc(C(F)(F)F)c1)[C@@H](CCN1CCN(c2ccccc2)CC1)c1ccc(F)cc1 | 11 |  | 
16 | CC(CN1CCC(c2ccccc2)CC1)[C@H](CNCc1cc(C(F)(F)F)cc(C(F)(F)F)c1)c1ccc(F)cc1 (stereo not given in full) | 0 |  | 
17 | O=C(NCc1cc(C(F)(F)F)cc(C(F)(F)F)c1)[C@@H](CCN1CCCC(Cc2ccccc2)C1)c1ccc(F)cc1 (stereo not given in full) | 43 |  | 
18 | C[C@@H]1CN(CC[C@H](C(=O)NCc2cc(C(F)(F)F)cc(C(F)(F)F)c2)c2ccc(F)cc2)CC[C@]12C=Cc1ccccc12 |  | 120 | IC50 (Monocyte [6]): 62 nM
19 | CCC1CN(CC[C@H](C(=O)NCc2cc(C(F)(F)F)cc(C(F)(F)F)c2)c2ccc(F)cc2)CCC12C=Cc1ccccc12 (stereo not given in full) |  | 440 | 

Now from value to molecule, other results behind:

Row | inhibition [1] [%] | IC50 [2] [nM] | SMILES | also measured
20 | 18 |  | O=C(NCc1cc(C(F)(F)F)cc(C(F)(F)F)c1)[C@@H](CCN1CC(c2ccccc2)C1)c1ccc(F)cc1 | 
21 |  | 150 | O=C(NCc1cc(C(F)(F)F)cc(C(F)(F)F)c1)[C@@H](CCN1CCC(c2ccccc2)CC1)c1ccc(F)cc1 | inhibition at 1 µM (Monocyte [3]): 40%; IC50 [4]: 72 nM; IC50 (Substance-P receptor): 24 nM
22 |  | 930 | O=C(NCc1cc(C(F)(F)F)cc(C(F)(F)F)c1)[C@H](CCN1CCC(c2ccccc2)CC1)c1ccc(F)cc1 | 
23 | 44 |  | O=C(NCc1cc(C(F)(F)F)cc(C(F)(F)F)c1)[C@@H](CCN1CCC(c2ccccc2)C1)c1ccc(F)cc1 (stereo not given in full) | 
24 | 3 |  | O=C(NCc1cc(C(F)(F)F)cc(C(F)(F)F)c1)[C@@H](CCN1CCCC(c2ccccc2)CC1)c1ccc(F)cc1 (stereo not given in full) | 
25 |  | 1500 | CC(C[C@H](C(=O)NCc1cc(C(F)(F)F)cc(C(F)(F)F)c1)c1ccc(F)cc1)N1CCC(c2ccccc2)CC1 (stereo not given in full) | 
26 |  | 160 | O=C(NCc1cc(C(F)(F)F)cc(C(F)(F)F)c1)[C@@H](CCN1CCC(c2ccsc2)CC1)c1ccc(F)cc1 | 
27 |  | 1100 | O=C(NCc1cc(C(F)(F)F)cc(C(F)(F)F)c1)[C@@H](CCCN1CCC(c2ccccc2)CC1)c1ccc(F)cc1 | 

— ChEMBL document CHEMBL1146856, “Novel, orally bioavailable gamma-aminoamide CC chemokine receptor 2 (CCR2) antagonists” (J Med Chem, 2006)
